From patent US11639350B2, “Heteroaryldihydropyrimidine derivatives and methods of treating hepatitis B infections” (Janssen Pharmaceutica NV, priority 2018, dated 2023) come the findings set out here.

Series [1] relates to HBV. The series can be described thus: HBV inhibitory activity: HBV DNA in the culture medium of HepG2.2.15 cells by q-PCR. It is filed as cell-based. Conditions: Hepatitis B virus, HepG2.2.15, 144 h, HepG2.2.15 cells, 6 days of compound treatment, HBV DNA in culture medium by q-PCR, highest concentration 10 μM; read-out: EC50. The procedure, abridged: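 HepG2.2.15 cells in 2% FBS medium, 40,000 per well, treated 6 days with compound (medium refreshed once), eight 3-fold dilutions from 10 μM top. HBV DNA extracted from culture medium and quantified by q-PCR; EC50 averaged over repeats. Cytotoxicity run in parallel at 5,000 cells per well, top 100 μM, giving CC50.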

Series [2] in a line: Cytotoxicity determination in HepG2.2.15 cells (CCK-8). Conditions: human, 6 days of compound treatment, CCK-8, highest concentration 100 μM. Type of series: cell-based. The procedure, abridged: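 HepG2.2.15 cells seeded at 5,000 cells/well in 2% FBS medium, incubated overnight at 37° C., then treated 6 days with compounds (8 points, 3-fold dilutions, top 100 μM), medium refreshed once midway. CCK-8 added for 2.5 h; A450 read against 630 nm reference; CC50 calculated, averaged over repeats.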

One may read the EC50 as the concentration needed to bring the measured effect to its halfway point. What is called CC50 is the concentration giving 50% cytotoxicity. Lower therefore signals greater toxicity to the cells. As to `CCS(=O)(=O)N1CCC(C2=C(C(=O)OC)C(c3ccc(F)cc3Cl)N=C(c3nccs3)N2)CC1` (centres unmarked) [Compound 101, Methyl 4-(2-chloro-4-fluorophenyl)-6-(1-(ethylsulfonyl)piperidin-4-yl)-2-(thiazol-2-yl)-1,4-dihydropyrimidine-5-carboxylate], the EC50 in series [1] was found to be 210 nM. The CC50 at 6 days in series [2] amounted to 38000 nM.

Regarding `COC(=O)C1=C([C@H]2CC[C@H](CC(=O)O)CC2)NC(c2nccs2)=NC1c1cccc(F)c1Cl` (relative stereo) [Compound 29, 2-(trans-4-(6-(2-Chloro-3-fluorophenyl)-5-(methoxycarbonyl)-2-(thiazol-2-yl)-3,6-dihydropyrimidin-4-yl)cyclohexyl)acetic Acid], the EC50 in series [1] came to 123 nM. This compound yielded a CC50 at 6 days in series [2] of 33600 nM.

As for `CCOC(=O)C1=C([C@H]2CC[C@H](C(=O)O)CC2)NC(c2nccs2)=NC1c1ccc(F)c(F)c1Br` (stereo partly drawn) [Compound 347B, (trans)-4-(6-(2-bromo-3,4-difluorophenyl)-5-(ethoxycarbonyl)-2-(thiazol-2-yl)-3,6-dihydropyrimidin-4-yl)cyclohexanecarboxylic Acid], in series [1], the EC50 stood at 110 nM. For the same compound, the CC50 at 6 days in series [2] is 31400 nM.

For the compound `COC(=O)C1=C([C@H]2CC[C@@H](NS(C)(=O)=O)CC2)NC(c2nccs2)=NC1c1ccc(F)cc1Cl` (single isomer, unassigned) [Compound 128D, Methyl 4-(2-chloro-4-fluorophenyl)-6-(cis-4-(methylsulfonamido)-cyclohexyl)-2-(thiazol-2-yl)-1,4-dihydropyrimidine-5-carboxylate], the EC50 in series [1] was 17 nM. The compound also registered a CC50 at 6 days in series [2] of 22800 nM.

Regarding `COC(=O)C1=C([C@@H]2CCN(S(=O)(=O)CC(F)(F)F)C2)NC(c2nccs2)=NC1c1ccc(F)cc1Cl` (stereo partly drawn) [Compound 364, Methyl 4-(2-chloro-4-fluorophenyl)-2-(thiazol-2-yl)-6-((R)-1-((2,2,2-trifluoroethyl)sulfonyl)pyrrolidin-3-yl)-1,4-dihydropyrimidine-5-carboxylate], in series [1], the EC50 is 208 nM. This compound returned a CC50 at 6 days in series [2] above 100000 nM.

Consider `COC(=O)C1=C([C@H]2CC[C@H](C(=O)O)CC2)NC(c2nccs2)=NC1c1ccc(F)cc1Br` (stereo partly drawn) [Compound 225, (trans)-4-(6-(2-Bromo-4-fluorophenyl)-5-(methoxycarbonyl)-2-(thiazol-2-yl)-3,6-dihydropyrimidin-4-yl)cyclohexanecarboxylic Acid], for which the EC50 in series [1] was determined as 87 nM. For the same compound, in series [2], the CC50 at 6 days is at least 100000 nM.

In the case of `COC(=O)C1=C([C@H]2CC[C@H](N(CCO)C(C)=O)CC2)NC(c2nccs2)=NC1c1ccc(F)c(F)c1Cl` (single isomer, unassigned) [Compound 433B, (trans)-Methyl 4-(2-chloro-3,4-difluorophenyl)-6-(4-(N-(2-hydroxyethyl)acetamido)cyclohexyl)-2-(thiazol-2-yl)-1,4-dihydropyrimidine-5-carboxylate], in series [1], the EC50 stood at 59 nM. The compound further returned a CC50 at 6 days in series [2] of 17400 nM.

In the case of `CCOC(=O)C1=C([C@H]2C[C@@H](NS(C)(=O)=O)C2(C)C)NC(c2nccs2)=NC1c1ccc(F)cc1Cl` (single isomer, unassigned) [Compound 437A, (cis)-Ethyl 4-(2-chloro-4-fluorophenyl)-6-(2,2-dimethyl-3-(methylsulfonamido)cyclobutyl)-2-(thiazol-2-yl)-1,4-dihydropyrimidine-5-carboxylate], the concentration giving a half-maximal response (EC50) in series [1] was 600 nM. The compound also had a CC50 at 6 days in series [2] of 10400 nM.

With `CCOC(=O)C1=C(C2CCN(S(=O)(=O)[C@H]3C[C@H](C(=O)O)C3)CC2)NC(c2nccs2)=NC1c1cccc(F)c1Cl` (stereo partly drawn) [Compound 319B, (trans)-3-((4-(6-(2-chloro-3-fluorophenyl)-5-(ethoxycarbonyl)-2-(thiazol-2-yl)-3,6-dihydropyrimidin-4-yl)piperidin-1-yl)sulfonyl)-cyclobutanecarboxylic Acid], the EC50 in series [1] amounted to 102 nM. Further, the CC50 at 6 days in series [2] worked out at 31300 nM.

Turning to `COC(=O)C1=C(C2CCN(S(=O)(=O)c3cnn(C)c3)CC2)NC(c2nccs2)=NC1c1ccc(F)cc1Cl` (centres unmarked) [Compound 165, Methyl 4-(2-chloro-4-fluorophenyl)-6-(1-((1-methyl-1H-pyrazol-4-yl)sulfonyl)piperidin-4-yl)-2-(thiazol-2-yl)-1,4-dihydropyrimidine-5-carboxylate], the EC50 in series [1] was 12 nM. The CC50 at 6 days in series [2] is above 100000 nM.

`COC(=O)C1=C(C2CCN(S(=O)(=O)C3CC(C)(C(=O)O)C3)CC2)NC(c2nccs2)=NC1c1ccc(F)cc1Cl` (stereo not drawn) [Compound 141, (trans)-3-((4-(6-(2-chloro-4-fluorophenyl)-5-(methoxycarbonyl)-2-(thiazol-2-yl)-3,6-dihydropyrimidin-4-yl)piperidin-1-yl)sulfonyl)-1-methylcyclobutane-1-carboxylic Acid]: the EC50 in series [1] turned out to be 51 nM. Moreover, in series [2], the midpoint of cytotoxicity, the CC50 at 6 days, lay at 30700 nM.

In the case of `COC(=O)C1=C([C@H]2CC[C@H](C(=O)O)CC2)NC(c2nccs2)=NC1c1cccc(F)c1Cl` (stereo partly drawn) [Compound 17, trans-4-(6-(2-Chloro-3-fluorophenyl)-5-(methoxycarbonyl)-2-(thiazol-2-yl)-3,6-dihydropyrimidin-4-yl)cyclohexanecarboxylic Acid], in series [1], the EC50 came out at 300 nM. Also, it took 93800 nM to reach half-maximal cytotoxicity in series [2] (CC50 at 6 days).

`COC(=O)C1=C(C23CC(NS(=O)(=O)CCO)(C2)C3)NC(c2nccs2)=NC1c1ccc(F)cc1Cl` (centres unmarked) [Compound 390B, Methyl 4-(2-chloro-4-fluorophenyl)-6-(3-(2-hydroxyethylsulfonamido)bicyclo[1.1.1]pentan-1-yl)-2-(thiazol-2-yl)-1,4-dihydropyrimidine-5-carboxylate]: the EC50 in series [1] turned out to be 54 nM. In series [2], half-maximal cytotoxicity (CC50 at 6 days) was put at 45300 nM.

For the compound `COC(=O)C1=C(C2COC2)NC(c2nccs2)=NC1c1ccc(F)cc1Cl` (racemic) [Compound 217, Methyl 4-(2-chloro-4-fluorophenyl)-6-(oxetan-3-yl)-2-(thiazol-2-yl)-1,4-dihydropyrimidine-5-carboxylate], the EC50 in series [1] was 511 nM. For the same compound, in series [2], the CC50 at 6 days turned out to be 29600 nM.

In the case of `COC(=O)C1=C(C23CC(C(C)O)(C2)C3)NC(c2nccs2)=NC1c1ccc(F)cc1Cl` (centres unmarked) [Compound 348B, Methyl 4-(2-chloro-4-fluorophenyl)-6-(3-(1-hydroxyethyl)bicyclo[1.1.1]pentan-1-yl)-2-(thiazol-2-yl)-1,4-dihydropyrimidine-5-carboxylate], the EC50 in series [1] turned out to be 63 nM. The compound further had a 50% cytotoxic concentration (CC50) at 6 days in series [2] of 25000 nM.

As to `COC(=O)C1=C(C2CN(S(=O)(=O)C3CCCCC3)C2)NC(c2nccs2)=NC1c1ccc(F)cc1Cl` (centres unmarked) [Compound 82, Methyl 4-(2-chloro-4-fluorophenyl)-6-(1-(cyclohexylsulfonyl)-azetidin-3-yl)-2-(thiazol-2-yl)-1,4-dihydropyrimidine-5-carboxylate], the EC50 in series [1] was 197 nM. In series [2], this compound came in with a CC50 at 6 days of 6900 nM.

For `COC(=O)C1=C([C@H]2CC[C@H](C(=O)O)CC2)NC(c2nccs2)=NC1c1ccc(F)c(F)c1C` (stereo partly drawn) [Compound 227A, (trans)-4-(−6-(3,4-Difluoro-2-methylphenyl)-5-(methoxycarbonyl)-2-(thiazol-2-yl)-3,6-dihydropyrimidin-4-yl)cyclohexanecarboxylic Acid], the EC50 in series [1] was 96 nM. Besides, in series [2], the midpoint of cytotoxicity, the CC50 at 6 days, lay at 37600 nM.

Regarding `COC(=O)C1=C(C2CCN(S(=O)(=O)C[C@H]3CC[C@H](C(=O)O)CC3)CC2)NC(c2nccs2)=NC1c1cccc(F)c1Cl` (stereo partly drawn) [Compound 454, (trans)-4-(((4-(6-(2-Chloro-3-fluorophenyl)-5-(methoxycarbonyl)-2-(thiazol-2-yl)-3,6-dihydropyrimidin-4-yl)piperidin-1-yl)sulfonyl)methyl)-cyclohexanecarboxylic Acid], the EC50 in series [1] came to 37 nM. This compound gave a CC50 at 6 days in series [2] of 12000 nM.

Take `CCOC(=O)C1=C(C2CCN(S(C)(=O)=O)CC2)NC(c2ncc(F)cc2F)=NC1c1ccc(F)cc1Cl` (single isomer, unassigned) [Compound 56A, Ethyl 4-(2-chloro-4-fluorophenyl)-2-(3,5-difluoropyridin-2-yl)-6-(1-(methylsulfonyl)piperidin-4-yl)-1,4-dihydropyrimidine-5-carboxylate]: the EC50 in series [1] was 513 nM. For the same compound, the CC50 at 6 days in series [2] is above 10000 nM.

Turning to `COC(=O)C1=C(C2CCN(S(=O)(=O)C3CC(O)C3)CC2)NC(c2nccs2)=NC1c1ccc(F)cc1Cl` (single isomer, unassigned) [Compound 335A, Methyl 4-(2-chloro-4-fluorophenyl)-6-(1-((3-hydroxycyclobutyl)sulfonyl)piperidin-4-yl)-2-(thiazol-2-yl)-1,4-dihydropyrimidine-5-carboxylate], the half-maximal effective concentration (EC50) in series [1] was determined as 20 nM. This compound also returned a CC50 at 6 days in series [2] of 12200 nM.

As to `COC(=O)C1=C(C2CCN(C(=O)CO)CC2)NC(c2nccs2)=NC1c1ccc(F)cc1Cl` (centres unmarked) [Compound 122, Methyl 4-(2-chloro-4-fluorophenyl)-6-(1-(2-hydroxyacetyl)-piperidin-4-yl)-2-(thiazol-2-yl)-1,4-dihydropyrimidine-5-carboxylate], the concentration giving a half-maximal response (EC50) in series [1] was 394 nM. The compound also had a CC50 at 6 days in series [2] of 5100 nM.

`CCOC(=O)C1=C([C@@H]2C[C@H](NC(C)=O)CO2)NC(c2nccs2)=NC1c1cccc(F)c1Cl` (relative stereo) [Compound 262, (cis)-Ethyl 6-(4-acetamidotetrahydrofuran-2-yl)-4-(2-chloro-3-fluorophenyl)-2-(thiazol-2-yl)-1,4-dihydropyrimidine-5-carboxylate]: the EC50 in series [1] was 400 nM. In series [2], this compound gave a CC50 at 6 days of 75800 nM.
